This is an account of results in US20240285808A1, “MOLECULAR PROBES FOR IN VIVO DETECTION OF ALDEHYDES” (The General Hospital Corporation, priority 2021, published 2024).

The nature of series [1]: Reaction rates with butyraldehyde measured by HPLC-ICP-MS (Method B). As to conditions: Method b: butyraldehyde 100 μM, probe 25 μM, pH 7.40. The series is classed as physicochemical. As to the method:
Method B: Reaction Rates of Compounds with Butyraldehyde Measured by HPLC-ICP-MS
The reactions were conducted in pH 7.40 phosphate-buffered with butyraldehyde concentration of 100 μM and hydrazine probes at 25 μM. Concentrations of unreacted starting material and condensation products were determined at 10 min time intervals over 2 hours based on their relative integrations. The values were fit to a standard first order rate constant linear equation and the rate constant was extracted from the slope.
Reaction with Butyraldehyde Monitored by HPLC-ICP-MS
Reactions were conducted in pH 7.4 phosphate-buffered saline with butyraldehyde concentration of 100 μM and hydrazine probes at 25 μM. Concentrations of unreacted starting material and condensation products were determined based on their relative integrations at 12 min time intervals over 2 hours.

Series [2] in a line: Affinity measurements of Gd^3+ complex with butyraldehyde (HPLC-ICP-MS). Format: physicochemical. As to the method:
FIG. 43A. […] FIG. 43B. Affinity measurements of Gd^3+ complex with butyraldehyde. Concentration-dependent binding of the probes to butyraldehyde as determined by HPLC-ICP-MS (pH 7.4 in PBS, 12 h).

The target of series [3] is T1, BSA-ALD (Bos taurus, UniProt P02769).
T1 construct: made in house; host or cells: no expression host: BSA oxidised chemically with sodium ascorbate, ferric chloride and H2O2, then desalted on PD-10
T1 sequence (P02769 25-607): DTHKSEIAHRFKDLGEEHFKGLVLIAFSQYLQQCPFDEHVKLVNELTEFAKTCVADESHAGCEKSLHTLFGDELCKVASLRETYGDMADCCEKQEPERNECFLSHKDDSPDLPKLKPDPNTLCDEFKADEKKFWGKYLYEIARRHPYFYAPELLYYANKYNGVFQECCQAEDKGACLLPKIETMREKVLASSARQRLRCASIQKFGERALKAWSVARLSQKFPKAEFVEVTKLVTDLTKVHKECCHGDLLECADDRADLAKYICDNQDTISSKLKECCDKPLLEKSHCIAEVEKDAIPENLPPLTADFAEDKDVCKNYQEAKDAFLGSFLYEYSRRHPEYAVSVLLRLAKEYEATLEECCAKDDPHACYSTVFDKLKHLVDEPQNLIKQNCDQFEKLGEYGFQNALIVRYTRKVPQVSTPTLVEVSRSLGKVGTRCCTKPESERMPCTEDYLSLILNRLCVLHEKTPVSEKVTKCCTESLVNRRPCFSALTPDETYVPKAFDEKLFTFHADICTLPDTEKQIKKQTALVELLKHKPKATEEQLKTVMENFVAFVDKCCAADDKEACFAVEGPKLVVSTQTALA
Description: On/off rate with oxidized BSA-ALD. Format: binding, bovine. As to conditions: for fold higher initial on rate / reactivity with BSA-Ald compared to Gd-CHyd: BSA-Ald 10 mg/mL in PBS. As to the method: On Off Rate with Oxidized BSA-ALD:
BSA-ALD (10 mg/mL) was incubated with 200 μM corresponding Gd or Mn complex at 37° C. in pH 7.4 PBS), with a total volume of 300 μL. The dynamic longitudinal (T1) relaxation time were measured using a Bruker mq60 Minispec at 1.41 T and 37° C. After 24 hours, protein-bound and protein-free solutions were separated by ultrafiltration. Then 200 μL PBS was added to the residue to dissolve the protein bound species. The change of longitudinal (T1) relaxation time was then measured in Bruker mq60 Minispec at 1.41 T and 37° C.

The target in series [4] is T1, BSA-ALD. Description: Binding yield measurements of Gd^3+ complex with BSA^Ald (ultrafiltration, ICP-MS). On the set-up: species or system bovine. As to conditions: pH 7.4, PBS, 37° C., 12 h, ultrafiltration 5,000 Da cut-off. As to the method:
FIG. 48. […] Binding concentration of the probes to BSA^Ald (pH 7.4, PBS, 37° C., 12 h) as determined by ICP-MS following an ultrafiltration (5,000 Da cut-off) to separate the protein-bound probe from the unbound probe. Slope gives the binding yield.
Alternatively, preparation of BSA^Ald and binding of Gd^3+ probe to protein was carried out according to modified procedures. To a solution of bovine serum albumin (BSA) (100 mg) dissolved in phosphate buffered saline (4 mL, pH 7.4, 0.25 mM) was added sodium ascorbate (20 mg), ferric chloride (120 μL, 10 mM) and 20 μL H2O2 (30% w). The reaction was stirred at 37° C. for 24 h, and sodium ascorbate (20 mg) was added repeatedly every 8 h. After 24 h, the protein was purified using PD-10 Sephadex G25 desalting columns (GE Healthcare), eluted with PBS. Protein concentration was assessed using the ‘Micro BCA Protein Assay Kit’ (Thermo Scientific, 23235). Protein carbonyl concentration was determined by ‘Protein Carbonyl Content Assay Kit’ (Sigma-Aldrich, MAK094-1KT). […] The protein solutions were kept at a concentration of 20 mg/mL for further use.

Series [5] can be described thus: Stability of compounds in human plasma. Format: in vitro ADME. As to conditions: 37° C., 2 or 3 hours. As to the method:
Stability of Compounds in Human Plasma:
A 16 μL aliquot of the Gd or Mn complex (1.0 mM) was added to 500 μL of human plasma (Lampire Biological laboratories). The solution was then incubated for 2 or 3 hours at 37° C. Aliquots (50 μL) were removed at 1, 2 or 3 hours. Proteins were precipitated by the addition of 150 μL of acetonitrile and removed following centrifugation. The supernatant was then analyzed using HPLC-ICP-MS. No unchelated gadolinium was observed nor the appearance of any new Gd/Mn-containing species.

In a further series the test system is PDAC6 xenograft tumor. Description: MR imaging of PDAC6 tumor xenograft model. The series is classed as in vivo, mouse. As to conditions: 60 min post injection. As to the method: Male NU(NCr)-Foxn1nu nude mice at 6-8 weeks of age were provided by Charles River Labs, Wilmington, MA. A total of 1×10^7 patient derived metastatic pancreatic cancer cells (PDAC6) were injected into the subcutaneous space of the right lower back of the mice (n=4 per group). Mice were imaged with Mn-17 (100 μmol/kg) 4 weeks after implanting the tumor for pretreatment imaging, and another group of mice were imaged 3-days post treatment with FOLFIRINOX (Folinate 50 mg/kg, Oxaliplaton 2.5 mg/kg, Irinotecan 25 mg/kg, Fluorouracil 25 mg/kg).
For PDAC6 xenograft tumor imaging, images were acquired with following sequences and parameters: 3D T1 weighted FLASH (TR/TE/FA=14 ms/[…]/30°, 0.4 mm isotropic spatial resolution, field of view (FOV) 35 mm×35 mm, two average, acquisition time=4.3 min) images were acquired prior to and dynamically post injection of contrast agent; 3D RARE (RARE, TR/TE/FA=[…]/57 ms/180°, 0.3 mm isotropic spatial resolution, field of view (FOV) 35 mm×60 mm, one average, acquisition time=8.1 min) image was also acquired.
For tumor imaging analysis, RARE image and first FLASH image post-contrast were used to define volumetric region of interest (ROIs) in the tumor that excluded necrosis region. ΔCNR was calculated by eq 22.

[6] abbreviates: 3-days post treatment (FOLFIRINOX).

As to `NN1CCN(C(=O)CCC(C(=O)[O-])N2CCN(CC(=O)[O-])CCN(CC(=O)[O-])CCN(C(CCC(=O)N3CCN(N)CC3)C(=O)[O-])CC2)CC1.[Gd+3]` (stereo not drawn) [Gd-9, cis-1,4-Gd-(CHyd)2], in series [1], the “k (second order rate constant)” value was 3.6 M⁻¹ s⁻¹. The “fold improved affinity over Gd-11 and Gd-CHyd” value in series [2] worked out at 2 fold. At BSA-ALD [3], the “faster on-rate than monobinder Gd-CHyd” value was 600%, the “fold slower off-rate than Gd-CHyd” value was found to be 1.5 fold, the “slower off-rate than monobinder Gd-CHyd” value came to 50% and the “fold higher initial on rate / reactivity with BSA-Ald compared to Gd-CHyd” value is recorded as 6 fold. Further, the “equilibrium binding to BSA^Ald (binding yield)” value at BSA-ALD [4] was determined as 39.2%. In addition, the “stability in human plasma (HPLC-ICP-MS)” value in series [5] was “lack of de-chelation or formation of Gd-containing metabolites”.
`NN1CCN(C(=O)CCC(C(=O)[O-])N2CCN(CC(=O)[O-])CCN(C(CCC(=O)N3CCN(N)CC3)C(=O)[O-])CCN(CC(=O)[O-])CC2)CC1.[Gd+3]` (stereo not drawn) [Gd-10, trans-1,7-Gd-(CHyd)2]: in series [1], the “k (second order rate constant)” value came to 3.5 M⁻¹ s⁻¹. Also, the “fold improved affinity over Gd-11 and Gd-CHyd” value in series [2] is 2 fold. Further, the “fold higher initial on rate / reactivity with BSA-Ald compared to Gd-CHyd” value at BSA-ALD [3] was found to be 3 fold. The “equilibrium binding to BSA^Ald (binding yield)” value on BSA-ALD [4] is reported as 28.1%. The “stability in human plasma (HPLC-ICP-MS)” value in series [5] is reported as “lack of de-chelation or formation of Gd-containing metabolites”.
Consider `NNCC(=O)NCCCN1CCN(CC(=O)[O-])Cc2cccc(n2)CN(CC(=O)[O-])CC1.[Mn+2]` [Mn-17], for which the “ΔCNR of PDAC6 xenograft tumor” value is on record as 6.4 ± 1.2 in the series on PDAC6 xenograft tumor (setting [6]) and 4.6 ± 1.0 in the series on PDAC6 xenograft tumor (Pre-treatment).
In the same order, the values of `CN(C)C(CCC(=O)NCCCN1CCN(CC(=O)[O-])Cc2cccc(n2)CN(CC(=O)[O-])CC1)C(=O)O.[Mn+2]` (centres unmarked) [Mn-18] are 0.4 ± 0.3 and 0.4 ± 0.3.
